This is an account of results in patent US20240000946A1, “CARBONIC ANHYDRASE INHIBITORS SYNTHESIZED ON INTERCONNECTING LINKER CHAINS” (VILNIUS UNIVERSITY, priority 2020, published 2024).

One test concerns the target T1, human recombinant CA I (Homo sapiens, UniProt P00915).
T1 construct: recombinant human carbonic anhydrase catalytic domains using the fluorescent thermal shift assay; made in house
Description: Fluorescent thermal shift assay (FTSA), CA I. The test is classed as binding. Particulars: 37° C., pH 7.0.

The target of another test is T2, human recombinant CA II (Homo sapiens, UniProt P00918).
T2 construct: recombinant human carbonic anhydrase catalytic domains using the fluorescent thermal shift assay; made in house
Kind of test: Fluorescent thermal shift assay (FTSA), CA II. Particulars: 37° C., pH 7.0. The format is binding.

The target of the next test is T3, human recombinant CA III (Homo sapiens, UniProt P07451).
T3 construct: recombinant human carbonic anhydrase catalytic domains using the fluorescent thermal shift assay; made in house
T3 sequence (P07451 3-259 limits assumed): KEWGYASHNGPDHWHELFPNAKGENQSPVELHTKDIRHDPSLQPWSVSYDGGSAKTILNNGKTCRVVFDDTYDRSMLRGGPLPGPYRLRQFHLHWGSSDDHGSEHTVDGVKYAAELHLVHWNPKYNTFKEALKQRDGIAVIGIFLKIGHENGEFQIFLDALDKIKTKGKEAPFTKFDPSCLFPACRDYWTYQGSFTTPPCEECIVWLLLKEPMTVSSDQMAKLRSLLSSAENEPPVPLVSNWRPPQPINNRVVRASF
Description: Fluorescent thermal shift assay (FTSA), CA III. The test is classed as binding. The note with it: 37° C., pH 7.0.

Another test addresses T4, human recombinant CA IV (Homo sapiens, UniProt P22748).
T4 construct: recombinant human carbonic anhydrase catalytic domains using the fluorescent thermal shift assay; made in house
Description: Fluorescent thermal shift assay (FTSA), CA IV. The test is classed as binding. The note with it: 37° C., pH 7.0.

For the next test, the target named is T5, human recombinant CA VA (Homo sapiens, UniProt P35218).
T5 construct: recombinant human carbonic anhydrase catalytic domains using the fluorescent thermal shift assay; made in house
T5 sequence (P35218 39-296 limits assumed): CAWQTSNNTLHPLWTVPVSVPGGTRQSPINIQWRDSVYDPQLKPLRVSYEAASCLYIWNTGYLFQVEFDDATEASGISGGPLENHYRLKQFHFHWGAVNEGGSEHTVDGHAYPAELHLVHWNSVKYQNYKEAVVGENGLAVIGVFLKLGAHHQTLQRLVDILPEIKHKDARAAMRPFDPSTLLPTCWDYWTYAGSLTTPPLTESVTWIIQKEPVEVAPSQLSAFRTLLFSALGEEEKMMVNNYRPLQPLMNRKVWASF
Kind of test: Fluorescent thermal shift assay (FTSA), CA VA. The format is binding. Particulars: 37° C., pH 7.0.

The target in the next test is T6, human recombinant CA VB (Homo sapiens, UniProt Q9Y2D0).
T6 construct: recombinant human carbonic anhydrase catalytic domains using the fluorescent thermal shift assay; made in house
T6 sequence (Q9Y2D0 37-296 limits assumed): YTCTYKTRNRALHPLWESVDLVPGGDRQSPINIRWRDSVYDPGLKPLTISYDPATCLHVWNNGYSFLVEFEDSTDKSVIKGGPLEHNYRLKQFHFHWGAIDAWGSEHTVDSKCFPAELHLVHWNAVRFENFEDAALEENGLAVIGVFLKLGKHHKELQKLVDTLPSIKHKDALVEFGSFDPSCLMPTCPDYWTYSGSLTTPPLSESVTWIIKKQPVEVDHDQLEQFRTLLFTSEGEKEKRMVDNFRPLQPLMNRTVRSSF
Description: Fluorescent thermal shift assay (FTSA), CA VB. The format is binding. Particulars: 37° C., pH 7.0.

The next test addresses T7, human recombinant CA VI (Homo sapiens, UniProt P23280).
T7 construct: recombinant human carbonic anhydrase catalytic domains using the fluorescent thermal shift assay; made in house
Kind of test: Fluorescent thermal shift assay (FTSA), CA VI. Particulars: 37° C., pH 7.0. The test is classed as binding.

A further test deals with T8, human recombinant CA VII (Homo sapiens, UniProt P43166).
T8 construct: recombinant human carbonic anhydrase catalytic domains using the fluorescent thermal shift assay; made in house
T8 sequence (P43166 5-262 limits assumed): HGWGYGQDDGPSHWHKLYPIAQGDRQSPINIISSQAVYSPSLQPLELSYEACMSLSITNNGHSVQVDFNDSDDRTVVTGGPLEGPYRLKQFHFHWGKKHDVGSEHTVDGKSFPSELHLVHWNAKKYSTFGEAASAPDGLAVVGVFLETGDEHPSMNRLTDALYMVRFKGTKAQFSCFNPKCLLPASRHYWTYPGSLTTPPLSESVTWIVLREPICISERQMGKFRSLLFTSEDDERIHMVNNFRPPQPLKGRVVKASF
Description: Fluorescent thermal shift assay (FTSA), CA VII. The note with it: 37° C., pH 7.0. The test is classed as binding.

The next test has as its target T9, human recombinant CA IX (Homo sapiens, UniProt Q16790).
T9 construct: recombinant human carbonic anhydrase catalytic domains using the fluorescent thermal shift assay; made in house
Kind of test: Fluorescent thermal shift assay (FTSA), CA IX. The format is binding. The note with it: 37° C., pH 7.0.

A further test deals with T10, human recombinant CA XII (Homo sapiens, UniProt O43570).
T10 construct: recombinant human carbonic anhydrase catalytic domains using the fluorescent thermal shift assay; made in house
T10 sequence (O43570 30-289 limits assumed): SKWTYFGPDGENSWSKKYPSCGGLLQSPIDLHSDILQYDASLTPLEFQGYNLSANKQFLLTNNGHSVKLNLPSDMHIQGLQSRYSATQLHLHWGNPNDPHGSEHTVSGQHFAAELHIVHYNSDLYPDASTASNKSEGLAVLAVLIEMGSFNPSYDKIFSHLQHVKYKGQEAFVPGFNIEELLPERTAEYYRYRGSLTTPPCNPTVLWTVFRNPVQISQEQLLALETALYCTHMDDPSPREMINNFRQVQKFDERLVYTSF
Description: Fluorescent thermal shift assay (FTSA), CA XII. The format is binding. The note with it: 37° C., pH 7.0.

Test [1] deals with T11, human recombinant CA XIII (Homo sapiens, UniProt Q8N1Q1).
T11 construct: recombinant human carbonic anhydrase catalytic domains using the fluorescent thermal shift assay; made in house
T11 sequence (Q8N1Q1 4-261 limits assumed): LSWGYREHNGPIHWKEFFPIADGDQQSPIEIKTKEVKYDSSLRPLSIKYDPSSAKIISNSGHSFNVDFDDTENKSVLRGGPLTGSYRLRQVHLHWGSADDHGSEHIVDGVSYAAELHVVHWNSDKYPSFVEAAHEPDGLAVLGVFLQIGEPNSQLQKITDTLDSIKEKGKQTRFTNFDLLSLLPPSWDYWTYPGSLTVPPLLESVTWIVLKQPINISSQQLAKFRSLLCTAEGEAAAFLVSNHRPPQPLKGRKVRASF
Kind of test: Fluorescent thermal shift assay (FTSA), CA XIII. The format is binding. Particulars: 37° C., pH 7.0.
Description: (§1) The protein solution in the absence and presence of various compound concentrations was heated from 25 to 99° C. (heating rate 1° C./min). The melting temperature Tm shift was determined by following the fluorescence of 8-anilino-1-naphthalene sulfonate (ANS). The samples consisted of 5 μM protein (except 10 μM for CA IV), different concentrations of compound (usually 0-200 μM), 50 μM ANS and 50 mM sodium phosphate buffer (at pH 7.0) containing 100 mM sodium chloride and 2% (v/v) of DMSO. Compound binding constant was obtained from protein Tm as a function of the added ligand concentration. Data analysis was performed, and the curves were fit so that the binding constant is determined for 37° C.

The next test deals with T12, human recombinant CA XIV (Homo sapiens, UniProt Q9ULX7).
T12 construct: recombinant human carbonic anhydrase catalytic domains using the fluorescent thermal shift assay; made in house
T12 sequence (Q9ULX7 20-278 limits assumed): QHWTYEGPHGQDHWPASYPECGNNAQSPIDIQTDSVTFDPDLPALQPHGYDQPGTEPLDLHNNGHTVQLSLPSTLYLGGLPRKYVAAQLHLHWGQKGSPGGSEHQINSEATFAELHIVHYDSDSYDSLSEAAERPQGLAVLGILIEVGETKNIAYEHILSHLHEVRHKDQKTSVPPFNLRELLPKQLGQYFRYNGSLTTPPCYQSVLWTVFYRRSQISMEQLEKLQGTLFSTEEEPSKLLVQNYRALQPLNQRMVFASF
Description: Fluorescent thermal shift assay (FTSA), CA XIV. The test is classed as binding. Particulars: 37° C., pH 7.0.

Another test has as its target T13, carbonic anhydrase IX (Homo sapiens, UniProt Q16790).
T13 construct: made in house
Kind of test: Inhibition of CA enzymatic (CO2 hydratase) activity. The format is biochemical. How it is done: The inhibition of hydratase activity of carbonic anhydrase I, II, and IX was performed using Applied Photophysics SX.18 MV-R instrument at 24° C. Theaturated substrate solution was prepared by bubbling carbon dioxide gas into Milly-Q water for 1 hour at room temperature. Phenol red was used as a pH indicator to follow the absorbance (A-557 nm) while CA acidified the medium. […] Raw curves were fitted using a single exponential model, and the dissociation constants were determined using the Morrison equation: […]
Where [CA] is a total added concentration of active CA, [I]—total added inhibitor concentration, and Kd is inhibitor binding affinity.

The next test deals with HeLa cancer cell culture. Description: Acidification of extracellular medium by hypoxic HeLa cell culture. The test is classed as cell-based, human. Particulars: 1 μM compound. How it is done: FIG. 6. HeLa cancer cell culture grown for 48 hours under hypoxic (1% O2) conditions caused acidification of extracellular medium as visualized by pH drop from initial pH 7.74 (shown as a dashed bold line) to pH 6.35.

T4 sequence (P22748 21-285 limits assumed): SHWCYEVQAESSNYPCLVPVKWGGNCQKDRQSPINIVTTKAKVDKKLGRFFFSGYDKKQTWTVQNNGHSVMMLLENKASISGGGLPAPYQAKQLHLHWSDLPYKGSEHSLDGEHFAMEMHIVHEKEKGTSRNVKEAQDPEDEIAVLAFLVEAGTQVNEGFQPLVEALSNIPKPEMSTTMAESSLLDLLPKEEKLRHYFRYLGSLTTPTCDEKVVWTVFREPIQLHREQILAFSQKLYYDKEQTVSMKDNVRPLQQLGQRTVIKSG
T1 sequence (P00915 4-261 limits assumed): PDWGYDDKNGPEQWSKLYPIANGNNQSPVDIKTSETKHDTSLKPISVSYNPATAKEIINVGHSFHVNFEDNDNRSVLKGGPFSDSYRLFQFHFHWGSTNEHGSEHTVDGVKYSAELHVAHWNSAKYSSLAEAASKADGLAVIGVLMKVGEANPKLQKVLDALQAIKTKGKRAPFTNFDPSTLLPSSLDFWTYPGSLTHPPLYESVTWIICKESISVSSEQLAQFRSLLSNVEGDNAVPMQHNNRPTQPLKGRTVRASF
T7 sequence (P23280 21-278 limits assumed): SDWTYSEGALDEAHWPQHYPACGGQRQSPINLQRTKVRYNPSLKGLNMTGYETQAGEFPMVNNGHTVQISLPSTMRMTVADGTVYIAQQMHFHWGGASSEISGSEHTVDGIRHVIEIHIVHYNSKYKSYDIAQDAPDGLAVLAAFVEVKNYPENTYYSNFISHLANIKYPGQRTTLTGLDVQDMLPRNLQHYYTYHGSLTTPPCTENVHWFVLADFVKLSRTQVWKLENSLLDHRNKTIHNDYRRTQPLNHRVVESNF
Description for human recombinant CA III: as §1
Description for human recombinant CA IV: as §1
Description for human recombinant CA IX: as §1
Description for human recombinant CA VA: as §1
Description for human recombinant CA VB: as §1
Description for human recombinant CA VII: as §1
Description for human recombinant CA XIV: as §1

Consider `NS(=O)(=O)c1c(F)c(F)c(S(=O)(=O)CCNC(=O)CCOCCOCCOCCOCCOCCOCCOCCOCCOCCOCCOCCOCCOCCC(=O)O)c(NC2CCCCCCC2)c1F` [AZ19-3-1, 3-[2-[2-[2-[2-[2-[2-[2-[2-[2-[2-[2-[2-[3-[2-[2-(cyclooctylamino)-3,5,6-trifluoro-4-sulfamoyl-phenyl]sulfonylethylamino]-3-oxo-propoxy]ethoxy]ethoxy]ethoxy]ethoxy]ethoxy]ethoxy]ethoxy]ethoxy]ethoxy]ethoxy]ethoxy]ethoxy]propanoic acid], for which the Kd at human recombinant CA I was 10000 nM; at human recombinant CA II, 250 nM; on human recombinant CA III, at least 200000 nM; on human recombinant CA IV it was 1000 nM; on human recombinant CA VA, 10000 nM; at human recombinant CA VB, 70 nM. In addition, the Kd is 500 nM on human recombinant CA VI; 50 nM on human recombinant CA VII; 0.05 nM at human recombinant CA IX; 20 nM on human recombinant CA XII; 20 nM in test [1]; 10 nM at human recombinant CA XIV.

Take `NS(=O)(=O)c1c(F)c(F)c(S(=O)(=O)CCNC(=O)CCOCCOCCOCCOCCOCCOCCOCCOCCOCCOCCOCCOCCNC(=O)CCCCC2SCC3NC(=O)NC32)c(NC2CCCCCCC2)c1F` (centres unmarked) [AZ19-1, N-[2-[2-[2-[2-[2-[2-[2-[2-[2-[2-[2-[2-[3-[2-[2-(cyclooctylamino)-3,5,6-trifluoro-4-sulfamoyl-phenyl]sulfonylmethylamine]-3-oxo-propoxy]ethoxy]ethoxy]ethoxy]ethoxy]ethoxy]ethoxy]ethoxy]ethoxy]ethoxy]ethoxy]ethoxy]ethyl]-5-(2-oxo-1,3,3a,4,6,6a-hexahydrothieno[3,4-d]imidazol-4-yl)pentanamide]: the Kd on human recombinant CA I is 10000 nM; at human recombinant CA II it was 450 nM; at human recombinant CA III, at least 200000 nM; at human recombinant CA IV, 1000 nM; on human recombinant CA VA, 7100 nM; on human recombinant CA VB it was 83 nM. Further, the Kd stood at 980 nM at human recombinant CA VI; 150 nM on human recombinant CA VII; 0.1 nM at human recombinant CA IX; 50 nM on human recombinant CA XII; 50 nM in [1]; 27 nM on human recombinant CA XIV.

On to `NS(=O)(=O)c1c(F)c(F)c(S(=O)(=O)CCNC(=O)CCOCCOCCOCCOCCOCCOCCOCCOCCOCCOCCOCCOCCOCCC(=O)NCCS(=O)(=O)c2c(F)c(F)c(S(N)(=O)=O)c(F)c2NC2CCCCCCC2)c(NC2CCCCCCC2)c1F` [AZ19-3-2, N-[2-[2-(cyclooctylamino)-3,5,6-trifluoro-4-sulfamoyl-phenyl]sulfonylethyl]-3-[2-[2-[2-[2-[2-[2-[2-[2-[2-[2-[2-[2-[3-[2-[2-(cyclooctylamino)-3,5,6-trifluoro-4-sulfamoyl-phenyl]sulfonylethylamino]-3-oxo-propoxy]ethoxy]ethoxy]ethoxy]ethoxy]ethoxy]ethoxy]ethoxy]ethoxy]ethoxy]ethoxy]ethoxy]ethoxy]propanamide], for which the Kd is 3300 nM at human recombinant CA I; 100 nM on human recombinant CA II; at least 200000 nM at human recombinant CA III; 250 nM at human recombinant CA IV; 3000 nM at human recombinant CA VA; 70 nM at human recombinant CA VB. Moreover, the Kd was 330 nM on human recombinant CA VII; 0.015 nM at human recombinant CA IX; 20 nM at human recombinant CA XII; 2 nM in test [1]; 8.3 nM on human recombinant CA XIV; under 10 nM at carbonic anhydrase IX (read-out: Real affinity for CA IX as bounded by enzymatic inhibition). For the same compound, on carbonic anhydrase IX (50 nM enzyme CA IX, compound titrates the enzyme, read-out: Compound concentration at 50% remaining activity of CA IX), the IC50 was about 10 nM. Further, the “Inhibition of acidification at 1 μM” value with HeLa cancer cell culture is reported as “mostly inhibited”.
